Source: the supplement of paper PMC11451515

Test system: NOMO1
Assay: cell viability relative to DMSO control; higher = less cytotoxic
Conditions: 48 h
In short: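 NOMO1 or SEM (500 cells/well) or P12-Ichikawa (1000 cells/well) leukemia cells were adapted for at least four passages in each medium. They were seeded in 1536-well plates (5 μl) and pin-dosed with library compounds in DMSO over an 11-point threefold series, 47 μM to 0.79 nM. CellTiter-Glo One luminescence was read after 48 h at 37°C. Viability is the per-plate percentage relative to DMSO wells, with cell-free wells as background.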

[1] = RPMI 5 mM glucose + 10% FBS, 0.000781 µM
[2] = RPMI 5 mM glucose + 10% FBS, 0.00234 µM
[3] = RPMI 5 mM glucose + 10% FBS, 0.00702 µM
[4] = RPMI 5 mM glucose + 10% FBS, 0.0211 µM
[5] = RPMI 5 mM glucose + 10% FBS, 0.0632 µM
[6] = RPMI 5 mM glucose + 10% FBS, 0.19 µM
[7] = RPMI 5 mM glucose + 10% FBS, 0.569 µM
[8] = RPMI 5 mM glucose + 10% FBS, 1.71 µM
[9] = RPMI 5 mM glucose + 10% FBS, 5.12 µM
[10] = RPMI 5 mM glucose + 10% FBS, 15.4 µM
[11] = RPMI 5 mM glucose + 10% FBS, 46.1 µM
[12] = RPMI 5 mM glucose + 10% dialyzed FBS, 0.000781 µM
[13] = RPMI 5 mM glucose + 10% dialyzed FBS, 0.00234 µM
[14] = RPMI 5 mM glucose + 10% dialyzed FBS, 0.00702 µM
[15] = RPMI 5 mM glucose + 10% dialyzed FBS, 0.0211 µM
[16] = RPMI 5 mM glucose + 10% dialyzed FBS, 0.0632 µM
[17] = RPMI 5 mM glucose + 10% dialyzed FBS, 0.19 µM
[18] = RPMI 5 mM glucose + 10% dialyzed FBS, 0.569 µM
[19] = RPMI 5 mM glucose + 10% dialyzed FBS, 1.71 µM
[20] = RPMI 5 mM glucose + 10% dialyzed FBS, 5.12 µM
[21] = RPMI 5 mM glucose + 10% dialyzed FBS, 15.4 µM
[22] = RPMI 5 mM glucose + 10% dialyzed FBS, 46.1 µM
[23] = HPLM + 10% dialyzed FBS, 0.000781 µM
[24] = HPLM + 10% dialyzed FBS, 0.00234 µM
[25] = HPLM + 10% dialyzed FBS, 0.00702 µM
[26] = HPLM + 10% dialyzed FBS, 0.0211 µM
[27] = HPLM + 10% dialyzed FBS, 0.0632 µM
[28] = HPLM + 10% dialyzed FBS, 0.19 µM
[29] = HPLM + 10% dialyzed FBS, 0.569 µM
[30] = HPLM + 10% dialyzed FBS, 1.71 µM
[31] = HPLM + 10% dialyzed FBS, 5.12 µM
[32] = HPLM + 10% dialyzed FBS, 15.4 µM
[33] = HPLM + 10% dialyzed FBS, 46.1 µM

SMILES	cell viability [1]	cell viability [2]	cell viability [3]	cell viability [4]	cell viability [5]	cell viability [6]	cell viability [7]	cell viability [8]	cell viability [9]	cell viability [10]	cell viability [11]	cell viability [12]	cell viability [13]	cell viability [14]	cell viability [15]	cell viability [16]	cell viability [17]	cell viability [18]	cell viability [19]	cell viability [20]	cell viability [21]	cell viability [22]	cell viability [23]	cell viability [24]	cell viability [25]	cell viability [26]	cell viability [27]	cell viability [28]	cell viability [29]	cell viability [30]	cell viability [31]	cell viability [32]	cell viability [33]
O=C1C[C@@H](c2ccc(O)cc2)Oc2cc(O)cc(O)c21	128%	104%	104%	100%	126%	124%	116%	107%	127%	106%	111%	111%	108%	117%	110%	120%	110%	119%	108%	86.2%	109%	97.9%	–	–	–	–	–	–	–	–	–	–	–
CC1=C(C=CC=C1)N2\C(=N/C3=C(C(=CC=C3)C)C2=O)C[N]4N=CC5=C4N=CN=C5N	122%	126%	121%	143%	125%	129%	33.4%	26%	26.2%	22.9%	22.7%	–	–	–	–	–	–	–	–	–	–	–	114%	116%	147%	133%	148%	147%	49.6%	44.3%	40%	38.5%	35.2%
CC(=O)OCC(=O)[C@@]12\N=C(C)/O[C@@H]1C[C@H]3[C@@H]4CCC/5=C/C(=O)/C=C\[C@]5(C)[C@H]4[C@@H](O)C[C@]23C	94.3%	106%	94.6%	105%	108%	106%	107%	113%	107%	98%	99.6%	94.1%	96.1%	102%	99.2%	105%	117%	109%	113%	109%	104%	91.8%	107%	102%	109%	130%	133%	137%	122%	128%	105%	121%	86.6%
CN(C)CCc1c[nH]c2ccc(C[C@H]3COC(=O)N3)cc12	104%	98.6%	106%	101%	112%	97.3%	110%	106%	99.9%	59.2%	12.9%	96.4%	108%	106%	111%	116%	114%	108%	102%	109%	87.8%	20.1%	104%	119%	106%	113%	106%	121%	127%	111%	104%	48.1%	9.77%
CC\1=C(C(=O)N(\C=C1)C2=CC=C(C=C2)C3=NC=CO3)/C4=CC5=CN=C(N)N=C5C=C4	97%	103%	96.1%	104%	112%	116%	114%	107%	124%	113%	100%	99.1%	89.6%	103%	119%	123%	107%	108%	101%	107%	117%	90%	98.8%	107%	126%	112%	108%	117%	122%	122%	123%	108%	94.9%
CN1CCC(CC1)COC2=CN=C(N=C2)C3=CC(=CC=C3)CN4/N=C(\C=C/C4=O)C5=CC(=CC=C5)C#N	106%	110%	103%	107%	118%	119%	108%	123%	113%	116%	114%	88%	111%	103%	109%	109%	115%	102%	120%	118%	100%	114%	105%	111%	103%	118%	119%	127%	111%	111%	123%	120%	101%
N[S+](=O)([O-])c1cc(Cl)c(Cl)c([S+](N)(=O)[O-])c1	112%	95.7%	96%	101%	104%	93.7%	99.3%	95.3%	100%	89.3%	87.5%	97.9%	99.1%	110%	97.5%	108%	95.7%	98.5%	92.6%	91.7%	100%	85.8%	112%	92.2%	107%	105%	106%	104%	116%	98.3%	86.5%	82.6%	94.3%
CCC1(c2ccc(N)cc2)CCC(=O)NC1=O (stereo unspecified)	106%	107%	116%	116%	102%	117%	103%	104%	123%	110%	99.7%	114%	111%	116%	117%	118%	104%	107%	123%	102%	111%	111%	115%	107%	125%	124%	122%	119%	115%	110%	116%	93.9%	97.6%
Clc1cc(Cl)cc(CNc2ncncc2-c2ccc3c(c2)OCO3)c1	77.6%	85.5%	87.6%	80.7%	101%	96.6%	87.3%	97.9%	85.4%	87.7%	40.3%	91.5%	92.1%	81.4%	93.7%	82%	93.5%	84.2%	87.3%	88.8%	101%	52.9%	81.1%	85.8%	97.1%	94.1%	101%	92.4%	94.6%	90.8%	85.7%	82.7%	16.1%
CC(C)Nc1cc(C(F)(F)F)cc2nc(NC(=O)c3cccnc3)nn12	106%	107%	115%	106%	98.1%	118%	116%	52.6%	45.9%	56.5%	64.8%	108%	109%	115%	119%	125%	103%	98.2%	55%	50.4%	56.9%	62.9%	120%	116%	118%	126%	123%	101%	119%	85.2%	80.8%	71.6%	54.2%
O=C1\C=C/C[C@@H]2[C@H]3CCCN4CCC[C@@H](CN12)[C@@H]34	90.2%	94.3%	97.1%	90.9%	95.4%	93%	93.4%	85.9%	91.8%	93%	93.4%	106%	107%	103%	116%	94.1%	104%	90.3%	106%	105%	98.9%	86.6%	116%	110%	117%	106%	125%	107%	101%	107%	121%	89.2%	104%
CCNC(=O)c1cc2c(-c3cc(OCCN4CCCC4)c(Cl)cc3Cl)nc(N)nc2s1	84.7%	93.6%	95.6%	85.6%	95.8%	109%	88.2%	88.9%	32.3%	13.2%	10.1%	107%	103%	115%	111%	82.8%	107%	93.2%	76.8%	51.2%	18.3%	12.5%	105%	121%	92.7%	107%	102%	104%	105%	86.6%	47.3%	17.2%	15.8%
O=C1Nc2ccc(Cl)cc2[C@@](C#CC2CC2)(C(F)(F)F)O1	73.7%	78.2%	77.1%	80.7%	88.7%	80.8%	79.3%	80.4%	81.3%	77.3%	12.5%	70.1%	90.1%	92.3%	101%	97.9%	95.9%	95.6%	93.2%	86.7%	95.7%	78.3%	74.7%	97%	76.4%	85.9%	97%	84.8%	80.2%	81.4%	59%	57.2%	79.8%
Cc1c(Cn2c(C)nc3c(C(=O)O)cc(N4CCOCC4)cc32)cccc1C(F)(F)F	87.2%	95.4%	101%	108%	103%	97.1%	108%	116%	112%	101%	75%	89.2%	112%	105%	117%	98.9%	101%	111%	112%	96.6%	102%	85.8%	98.3%	114%	121%	125%	115%	120%	106%	121%	105%	95.8%	16.3%
CC(C)C[C@H](NC(=O)[C@@H](NC(=O)c1cccc(-c2ccccc2)n1)[C@@H](C)O)B(O)O	94.7%	111%	115%	128%	66.2%	23.5%	8.87%	10.1%	7.67%	5.17%	3.38%	104%	125%	126%	131%	86.9%	39.9%	10.7%	8.94%	8.79%	5.46%	3.79%	–	–	–	–	–	–	–	–	–	–	–
O=C(/C=C/c1cccc([S+](=O)([O-])Nc2ccccc2)c1)NO	–	–	–	–	–	–	–	–	–	–	–	–	–	–	–	–	–	–	–	–	–	–	143%	112%	121%	120%	154%	132%	139%	129%	88%	12.2%	9.85%
CC(C)Oc1cc(Nc2nc(N[C@@H](C)c3ccc(F)cn3)ncc2Cl)n[nH]1	107%	100%	111%	110%	104%	104%	116%	53.7%	60.4%	68%	72.6%	101%	109%	115%	100%	134%	110%	110%	61.6%	57.6%	68.9%	85.9%	104%	113%	120%	114%	99%	96.8%	127%	94.1%	101%	108%	92.4%
